We go through 1 molecule from patent US9540702B2, “Stabilization of enzymes with stable coenzymes” (Roche Diabetes Care, Inc., priority 2009, dated 2017).

In test [1] the target is T1, alcohol dehydrogenase (ADH) (Saccharomyces cerevisiae, UniProt P00330).
T1 sequence (P00330 1-348): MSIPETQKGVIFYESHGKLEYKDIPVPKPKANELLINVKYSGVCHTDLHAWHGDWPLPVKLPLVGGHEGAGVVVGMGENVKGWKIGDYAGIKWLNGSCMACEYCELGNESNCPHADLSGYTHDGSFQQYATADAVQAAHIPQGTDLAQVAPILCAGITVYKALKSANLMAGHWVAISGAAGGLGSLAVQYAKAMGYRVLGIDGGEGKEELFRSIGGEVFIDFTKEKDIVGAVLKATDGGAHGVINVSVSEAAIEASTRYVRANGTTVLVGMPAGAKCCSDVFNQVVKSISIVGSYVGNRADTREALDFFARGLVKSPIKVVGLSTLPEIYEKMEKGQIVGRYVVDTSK
Put plainly: Stability of alcohol dehydrogenase with coenzyme in a liquid phase at 35° C. The test is classed as biochemical, yeast. The following applies: 65 hours at 35° C., 5 mg/ml ADH, 50 mg/ml coenzyme, pH 9.0. As to the method:
FIG. 12 is a graphical illustration of the stability of alcohol dehydrogenase from yeast in the presence of NAD or cNAD in a liquid phase at 35° C. for a period of 65 hours with test conditions of 5 mg/ml ADH; 50 mg/ml NAD or cNAD; buffer: 75 mM Na4P2O7; glycine, pH 9.0; temperature 35° C.
cNAD or NAD was added to a detection solution containing alcohol dehydrogenase. These mixtures were stored at 2-8° C. and at 35° C. Subsequently, the stability of alcohol dehydrogenase (ADH) was checked at regular intervals and the residual activity of the enzyme was determined.
The residual activity of alcohol dehydrogenase in the presence of the native coenzyme NAD is at about 6% after 65 hours at 35° C., whereas the residual activity of the enzyme in the presence of the artificial coenzyme cNAD is still at about 60%.

For the next test, the system named is diaphorase. The experiment in a line: Enzyme activity in test strips stored up to 18 weeks (Table 7). The test is classed as biochemical. As to the method: In order to evaluate the stabilization of glucose dehydrogenase and diaphorase by carbaNAD, a number of test strips were prepared in analogy to Example 5.
The test strips were stored over a period of 18 weeks at temperatures of 5° C. (KS, refrigerator), 25° C. (RT), 30° C. (GT), 35° C. (DT) and 45° C. (HT), and the enzyme activity in the test strips was determined at the start of storage (0 weeks), after 6 weeks, after 9 weeks, after 12 weeks and after 18 weeks. The results are shown in Table 6 (glucose dehydrogenase) and in Table 7 (diaphorase).

Test [2] addresses glucose dehydrogenase (wild-type) (Bacillus subtilis, UniProt P12310). The experiment in a line: DSC of coenzyme binding. The following applies: 3.8 mM ligand; 0.1 M Tris buffer, pH 8.5.
Test [3] concerns L-lactate dehydrogenase (porcine). Put plainly: DSC of coenzyme binding. The following applies: 3.8 mM ligand; 0.1 M Tris buffer, pH 8.5.
Test [4] addresses L lactate dehydrogenase (from rabbit) (Oryctolagus cuniculus, UniProt P13491). Put plainly: DSC of coenzyme binding. The settings on record: 3.8 mM ligand; 0.1 M Tris buffer, pH 8.5.

Chain of glucose dehydrogenase (wild-type) (P12310 whole entry): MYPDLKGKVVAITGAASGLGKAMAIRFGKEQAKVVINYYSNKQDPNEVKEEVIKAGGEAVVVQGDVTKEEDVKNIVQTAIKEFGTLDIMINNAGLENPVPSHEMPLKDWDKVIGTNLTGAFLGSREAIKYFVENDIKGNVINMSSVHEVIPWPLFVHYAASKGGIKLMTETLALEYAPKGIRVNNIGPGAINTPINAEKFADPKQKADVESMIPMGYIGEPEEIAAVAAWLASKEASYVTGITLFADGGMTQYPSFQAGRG

As for `NC(=O)c1ccc[n+]([C@@H]2C[C@H](COP(=O)([O-])OP(=O)(O)OC[C@H]3O[C@@H](n4cnc5c(N)ncnc54)[C@H](O)[C@@H]3O)[C@@H](O)[C@H]2O)c1` [carbaNAD], the “residual activity of alcohol dehydrogenase” value in test [1] is given as “about 60%”. Also, the “Enzyme activity, diaphorase” value is reported as 4.6 U/cm^2 in the test with diaphorase (0 weeks (start of storage)); 3.4 U/cm^2 in the test with diaphorase (DT (35° C.), 6 weeks); 4.4 U/cm^2 in the test with diaphorase (DT (35° C.), 9 weeks); 4.0 U/cm^2 with diaphorase (DT (35° C.), 12 weeks); 5.3 U/cm^2 with diaphorase (DT (35° C.), 18 weeks); 4.3 U/cm^2 in the test on diaphorase (GT (30° C.), 12 weeks). In addition, the “Enzyme activity, diaphorase” value in the test on diaphorase (GT (30° C.), 18 weeks) is reported as 6.2 U/cm^2; in the test with diaphorase (HT (45° C.), 6 weeks), 3.9 U/cm^2; with diaphorase (HT (45° C.), 9 weeks), 3.8 U/cm^2; with diaphorase (KS (5° C.), 6 weeks) it was 4.4 U/cm^2; with diaphorase (KS (5° C.), 9 weeks) it was 5.2 U/cm^2; with diaphorase (KS (5° C.), 12 weeks), 4.8 U/cm^2. The “Enzyme activity, diaphorase” value is on record as 7.0 U/cm^2 in the test with diaphorase (KS (5° C.), 18 weeks); 4.5 U/cm^2 in the test with diaphorase (RT (25° C.), 6 weeks); 5.1 U/cm^2 with diaphorase (RT (25° C.), 9 weeks); 4.6 U/cm^2 in the test with diaphorase (RT (25° C.), 12 weeks); 6.7 U/cm^2 with diaphorase (RT (25° C.), 18 weeks). Moreover, the figures for the TM in test [2], in test [3] and in test [4] were 58.5 °C, 61.5 °C and 60.2 °C, respectively. In addition, the ΔHcal in test [2] is on record as 84 kcal/mol; in test [3], 82 kcal/mol; in test [4] it was 66 kcal/mol.
